# From ChEMBL document CHEMBL1201862, “PubChem BioAssay data set” (2004)
#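 In this assay, cells in 96-well plates receive the compound at five concentrations for 48 hours. Endpoints are linearly interpolated between the surrounding concentrations. The concentration for 50% growth inhibition is given as GI50.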 Active and inactive are the calls of the source. Cut-off read from the data, not from the text of the source: active = GI50 up to about 1.1 µM and inactive = higher.
# How the values were obtained:
# Assay in all cases: NCI-60 cell line screen, 48 h
# [1] = test system: UACC-257
# [2] = test system: SK-MEL-5
# [3] = test system: HT-29
# [4] = test system: TK-10
# [5] = test system: CAKI-1
# [6] = test system: OVCAR-5
# [7] = test system: 786-0
# [8] = test system: Malme-3M
# [9] = test system: NCI-H522
# [10] = test system: SNB-19
# [11] = test system: EKVX
# [12] = test system: A549
# [13] = test system: M14
# [14] = test system: HCT-15
# [15] = test system: A498
# [16] = test system: KM12
# [17] = test system: SR
# [18] = test system: SK-OV-3
Compound,GI50 [1],GI50 [2],GI50 [3],GI50 [4],GI50 [5],GI50 [6],GI50 [7],GI50 [8],GI50 [9],GI50 [10],GI50 [11],GI50 [12],GI50 [13],GI50 [14] [µM],GI50 [15],GI50 [16],GI50 [17],GI50 [18]
CCOc1ccc(C(CN2CCOCC2)C(C)=O)cc1OC (stereo not given),22.1 µM (inactive),20.1 µM (inactive),19.6 µM (inactive),17.1 µM (inactive),10.8 µM (inactive),19 µM (inactive),3.53 µM (inactive),18.5 µM (inactive),1.22 µM (inactive),17.1 µM (inactive),22.6 µM (inactive),24.6 µM (inactive),17.5 µM (inactive),10,26.5 µM (inactive),15.3 µM (inactive),–,–
CC(=O)Nc1ccc(C(=O)N2N=C(C)/C(=C\c3c(O)ccc4ccccc34)C2=O)cc1,> 100 µM (inactive),35.4 µM (inactive),> 100 µM (inactive),0.1 µM (active),> 100 µM (inactive),> 100 µM (inactive),> 100 µM (inactive),24 µM (inactive),67 µM (inactive),> 100 µM (inactive),> 100 µM (inactive),> 100 µM (inactive),85.1 µM (inactive),18.4,–,> 100 µM (inactive),53.3 µM (inactive),–
O=S(=O)(N/N=C/c1ccc(/C=N/NS(=O)(=O)c2ccccc2)cc1)c1ccccc1,53.2 µM (inactive),39.4 µM (inactive),59.6 µM (inactive),60.7 µM (inactive),–,4.36 µM (inactive),50.6 µM (inactive),> 100 µM (inactive),–,–,72.9 µM (inactive),77.6 µM (inactive),> 100 µM (inactive),44.1,68.5 µM (inactive),35.8 µM (inactive),29 µM (inactive),> 100 µM (inactive)
Cc1cccc(NC(=O)c2cc3cc(/N=N/c4ccccc4Cl)ccc3oc2=O)c1,40.4 µM (inactive),19.8 µM (inactive),38.2 µM (inactive),36 µM (inactive),41.1 µM (inactive),23.4 µM (inactive),26.9 µM (inactive),45.4 µM (inactive),22.3 µM (inactive),49 µM (inactive),53.1 µM (inactive),77.3 µM (inactive),26.8 µM (inactive),27.4,> 100 µM (inactive),15.4 µM (inactive),–,88.7 µM (inactive)
Cc1cc(C)c(C2=NO[C@@H]3C(=O)N(c4ccc(Cc5ccc(N6C(=O)[C@H]7C(c8c(C)cc(C)cc8C)=NO[C@H]7C6=O)cc5)cc4)C(=O)[C@H]23)c(C)c1,68.4 µM (inactive),> 100 µM (inactive),> 100 µM (inactive),> 100 µM (inactive),> 100 µM (inactive),> 100 µM (inactive),> 100 µM (inactive),> 100 µM (inactive),–,–,> 100 µM (inactive),> 100 µM (inactive),64.4 µM (inactive),> 100,> 100 µM (inactive),> 100 µM (inactive),–,> 100 µM (inactive)
CCOP(=O)(OCC)C1C(=O)O[C@H]2CCCC[C@@H]12 (stereo not given in full),> 100 µM (inactive),> 100 µM (inactive),> 100 µM (inactive),> 100 µM (inactive),> 100 µM (inactive),> 100 µM (inactive),> 100 µM (inactive),> 100 µM (inactive),–,> 100 µM (inactive),> 100 µM (inactive),> 100 µM (inactive),> 100 µM (inactive),> 100,> 100 µM (inactive),> 100 µM (inactive),–,> 100 µM (inactive)
CC1=NN(C(=O)Cc2ccccc2)C(=O)/C1=C\c1ccccc1O,> 100 µM (inactive),> 100 µM (inactive),> 100 µM (inactive),> 100 µM (inactive),> 100 µM (inactive),> 100 µM (inactive),> 100 µM (inactive),> 100 µM (inactive),> 100 µM (inactive),> 100 µM (inactive),> 100 µM (inactive),> 100 µM (inactive),> 100 µM (inactive),> 100,> 100 µM (inactive),> 100 µM (inactive),–,> 100 µM (inactive)
CN1CCCc2nc3ccccc3n2C1,> 100 µM (inactive),> 100 µM (inactive),> 100 µM (inactive),> 100 µM (inactive),> 100 µM (inactive),> 100 µM (inactive),> 100 µM (inactive),> 100 µM (inactive),97.7 µM (inactive),> 100 µM (inactive),> 100 µM (inactive),> 100 µM (inactive),> 100 µM (inactive),> 100,> 100 µM (inactive),> 100 µM (inactive),–,> 100 µM (inactive)
Cn1cc(NC(=O)c2cc(NC(=O)CCCCCCCCCCC(=O)Nc3cc(C(=O)Nc4cc(C(=O)NCCC(=N)N)n(C)c4)n(C)c3)cn2C)cc1C(=O)NCCC(=N)N,7.8 µM (inactive),15.8 µM (inactive),29.1 µM (inactive),29.4 µM (inactive),46.8 µM (inactive),67.3 µM (inactive),23.6 µM (inactive),2.18 µM (inactive),12.1 µM (inactive),34.4 µM (inactive),31 µM (inactive),22.2 µM (inactive),28.2 µM (inactive),36.6,–,12.4 µM (inactive),–,> 100 µM (inactive)
CC1=CC(N2C(=O)C(C)=CC2O)NC1=O (stereo not given),> 100 µM (inactive),–,> 100 µM (inactive),> 100 µM (inactive),> 100 µM (inactive),> 100 µM (inactive),> 100 µM (inactive),45.8 µM (inactive),> 100 µM (inactive),> 100 µM (inactive),> 100 µM (inactive),> 100 µM (inactive),> 100 µM (inactive),–,–,> 100 µM (inactive),> 100 µM (inactive),–
CN1c2ccccc2N(C(=O)c2ccc(Cl)cc2)C(CC(=O)O)c2cccn21 (stereo not given),> 100 µM (inactive),> 100 µM (inactive),> 100 µM (inactive),> 100 µM (inactive),> 100 µM (inactive),> 100 µM (inactive),> 100 µM (inactive),> 100 µM (inactive),> 100 µM (inactive),> 100 µM (inactive),> 100 µM (inactive),> 100 µM (inactive),> 100 µM (inactive),> 100,> 100 µM (inactive),> 100 µM (inactive),–,> 100 µM (inactive)
O=c1nc(/C=C/c2ccccc2Cl)cc2n1CCN2CCO,–,–,> 100 µM (inactive),> 100 µM (inactive),> 100 µM (inactive),> 100 µM (inactive),> 100 µM (inactive),> 100 µM (inactive),24.3 µM (inactive),< 0.01 µM (active),> 100 µM (inactive),–,> 100 µM (inactive),> 100,–,59.4 µM (inactive),50.1 µM (inactive),43.8 µM (inactive)
COc1nc2c(nc(N)n2C2OCC(O)C(O)C2O)c(=O)n1C (stereo not given),> 100 µM (inactive),> 100 µM (inactive),> 100 µM (inactive),> 100 µM (inactive),> 100 µM (inactive),–,> 100 µM (inactive),> 100 µM (inactive),> 100 µM (inactive),> 100 µM (inactive),> 100 µM (inactive),> 100 µM (inactive),> 100 µM (inactive),–,> 100 µM (inactive),> 100 µM (inactive),> 100 µM (inactive),> 100 µM (inactive)
COC(=O)CCSC(=O)Nc1ccc(/N=N/c2ccccc2)cc1,56.5 µM (inactive),51.9 µM (inactive),68.5 µM (inactive),61.8 µM (inactive),98.4 µM (inactive),71.1 µM (inactive),57.7 µM (inactive),> 100 µM (inactive),–,32.1 µM (inactive),39.5 µM (inactive),76.4 µM (inactive),70 µM (inactive),36.1,29.5 µM (inactive),31.1 µM (inactive),30.6 µM (inactive),> 100 µM (inactive)
Brc1ccc2ns[s+]c2c1,14.9 µM (inactive),–,1.3 µM (inactive),5.28 µM (inactive),2.49 µM (inactive),–,98.2 µM (inactive),33.5 µM (inactive),4.79 µM (inactive),29.9 µM (inactive),13 µM (inactive),3.6 µM (inactive),0.45 µM (active),0.343,> 100 µM (inactive),3.79 µM (inactive),4.36 µM (inactive),> 100 µM (inactive)
Cc1cc(CC(=O)NCCO)n(CCO)c(=O)c1,> 100 µM (inactive),> 100 µM (inactive),> 100 µM (inactive),> 100 µM (inactive),> 100 µM (inactive),> 100 µM (inactive),> 100 µM (inactive),> 100 µM (inactive),> 100 µM (inactive),> 100 µM (inactive),–,> 100 µM (inactive),> 100 µM (inactive),–,–,> 100 µM (inactive),> 100 µM (inactive),–
Cn1c(=O)nc2n(-c3ccc(F)c(F)c3)c3ccccc3nc-2c1=O,6.68 µM (inactive),8.18 µM (inactive),4.03 µM (inactive),32.3 µM (inactive),38.4 µM (inactive),22.3 µM (inactive),32.7 µM (inactive),11.3 µM (inactive),10.4 µM (inactive),15.7 µM (inactive),4.82 µM (inactive),15.9 µM (inactive),13.8 µM (inactive),7.33,42.9 µM (inactive),20.8 µM (inactive),–,> 100 µM (inactive)
